Results on 3 compounds are retold here after patent publication US8097585B2, “Methods of treating inflammation by administration of heme oxygenase-1 and products of heme degradation” (priority 2002, dated 2012).

In one experiment the test system is DSS-colitis. Description: DSS-colitis (acute colitis) mouse model: weight loss, DAI, symptoms, crypt score. The format is in vivo, C57BL/6 mice. The source says:
Animals. Pathogen-free male C57BL/6 mice, 4-6 weeks of age (Taconic; C57BL/6×129 svj strain) were used in this example. Mice were kept for one week at 4 mice/cage and fed normal laboratory chow and drinking water ad libitum prior to the experiments. All mice weighed between 22.5 g and 27.7 g at the beginning of the trial. The animal experimentation protocol was reviewed and approved by the Animal Care and Use Committees of the Beth Israel Deaconess Medical Center.
Induction of Colitis. Colitis was induced by feeding mice 5% (wt/v) dextran sodium sulfate (DSS) (MW 40,000; ICN Biomedicals Inc., OH), dissolved in distilled water, for a period of 7 days. The resulting condition was termed “DSS-colitis.” Control animals were fed distilled water ad libitum. The mortality rate in the control group and the CO-treated group was 10% (2/20) and 14% (2/14), respectively. These animals were excluded from the statistical analysis. In the other groups, no mortality occurred during 7 days of 5% DSS treatment.
Experimental Reagents and Treatment Protocol. Cobalt protoporphyrin (CoPPIX), zinc protoporphyrin (ZnPPIX, Porphyrin Products, Logan, Utah) and biliverdin dihydrochloride (ICN Biomedicals Inc., OH) were dissolved in a small amount 0.2 M NaOH, subsequently adjusted to a pH of 7.4 with 1 M HCl, and diluted in 0.9% NaCl. The stock solutions (CoPPIX and ZnPPIX=1 mg/ml, biliverdin=10 mM) were aliquoted and kept at −70° C. until used. Light exposure was limited as much as possible. CoPPIX (5 mg/kg), ZnPPIX (20 mg/kg) and biliverdin (50 μmol/kg) were administered to the mice intraperitoneally (i.p.) 24 hours before induction of DSS-colitis and daily thereafter. Desferoxamine (DFO) was prepared in imidazole buffer (50 mM imidazole, 220 mM NaCl, pH 7.4). DFO was injected subcutaneously (s.c.) twice daily (125 mg/kg) or infused i.p. (130 mg/kg/day; pumping rate 0.5 μl/hour for 8 days) by miniosmotic Alzet™ pumps (Alza Corporation, Palo Alto, Calif.) (Postma et al., Exp. Parasitol. 89(3):323-30 1998). The pumps were installed i.p. 24 hours before induction of colitis. When animals were sacrificed at day 7 of DSS treatment, the pumps were removed and evaluated to determine if DFO application had taken place.
CO gas was administrated exogenously by putting animals in a CO exposure chamber (Otterbein et al., Nat. Med. 6(4):422-8, 2000). Briefly, CO at a concentration of 1% (10,000 parts per million (ppm)) in compressed air was mixed with balanced air (21% oxygen) in a stainless steel mixing cylinder before entering the exposure chamber. CO concentrations were controlled by varying the flow rates of CO in a mixing cylinder before delivery to the chamber. Because the flow rate is primarily determined by the O2 flow, only the CO flow was changed to deliver the final concentration to the exposure chamber. A CO analyzer (Interscan Corporation, Chatsworth, Calif.) was used to measure CO levels continuously in the chamber. Mice were placed in the chamber 24 hours before the induction of the colitis and were kept in the exposure chamber during the whole period of the experiment (total of 8 days). […] Animals were removed daily from the chamber to assess weight and stool.
Evaluation of Symptoms of Colitis. All animals were evaluated clinically on a daily basis. The evaluation of each animal included a measurement of weight, hemoccult positivity and examination of stool for the presence of gross blood and stool consistency. The disease activity index (DAI) was calculated by scoring percent weight loss, intestinal bleeding (no blood; occult blood=hemoccult+; gross blood) and stool consistency (normal stool=well-formed pellets; loose stool=pasty and semiformed stools; diarrhea=liquid stool that stuck to the anus) (Table 1).
The animals were sacrificed, and the whole colon from the colo-cecal junction to the anal verge was removed and gently cleaned of stool. […]

Experiment [1] deals with DBA/2 islets in diabetic B6AF1 recipients. The experiment in a line: Allogeneic islet transplantation, graft survival and tolerance test. Type of experiment: in vivo, mice. As to the method: Animals. Male DBA/2, B6AF1 and DBA/1 mice 6-8 week of age (Jackson) are used in the experiments. Mice were kept for 2 weeks at 4 mice/cage and fed normal laboratory chow before using for the experiment.
Treatment protocol. Recipients were rendered diabetic using streptozotocin (STZ, 225 mg/kg). Five days after STZ administration, animals with two consecutive blood glucose levels exceeding 350 mg/dl are used as recipients. Islets (500) are transplanted under the kidney capsule of the recipients.
Reagents. Cobalt protoporphyrin (CoPPIX, Porphyrin Products, Logan, Utah), biliverdin dihydrochloride and bilirubin (ICN Biomedicals Inc., OH) were dissolved in a small amount of 0.2 M NaOH, subsequently adjusted to a pH of 7.4 with 1 M HCl, and diluted in 1×PBS. The stock solutions (CoPPIX=2 mg/ml, biliverdin=3.2 mg/ml, bilirubin=0.5 mg/ml) were aliquoted and kept at −70° C. until used. Light exposure was limited as much as possible.
Induction of HO-1/Administration of biliverdin/bilirubin. When given to the donor, CoPPIX (20 mg/kg) was given 24 hours before islet isolation to induce HO-1 expression. To verify HO-1 expression in different organs after CoPP treatment, tissue samples are collected 24 hours after treatment and snap frozen in liquid nitrogen. Immunohistological analysis of HO-1 expression is performed using an anti-HO-1 antibody. CoPPIX (20 mg/kg) was administrated to the recipient intraperitoneally (i.p.) on day-1, 1, 3, 5 and 7. Biliverdin (50 μmol/kg) or bilirubin (8.5 μmol/kg) was given intraperitoneally to the donor one hour before islet isolation. For the recipient, biliverdin (50 μmol/kg) or bilirubin ([…]) was administered intraperitoneally either daily or twice per day from day-1 until day 13. No further treatment was given afterwards.
Measurement of Glucose level. Glucose levels were tested twice weekly after transplantation. Glucose levels of <200 mg/dl were considered normoglycemic. Grafts were considered rejected when two consecutive glucose levels were >300 mg/dl.
Tolerance test. The first graft was removed from a number of animals that had islets surviving long-term (longer than 100 days) by doing a nephrectomy. Islets syngeneic with the original donor were transplanted under the contralateral kidney capsule without further treatment. If those second transplanted islets also survived longer than 100 days without further treatment, the recipients were considered tolerant.

Experiment [2] relates to DBA/2 cardiac allografts in B6AF1 recipients. Description: Heterotopic cardiac allograft transplantation, graft survival. The format is in vivo, mice. As to the method:
Animals. Male DBA/2 (H-2^d), B6AF1 (H-2^k/d,b) and FVB (H-2^q) mice were purchased from Jackson Lab. Inc. (Bar Harbor, Me.). They were maintained in the institutional specific-pathogen free facility, which has an appropriate light cycle with free access to water and chow ad libitum, and used for experiments at age of 6-10 weeks.
Cardiac transplantation. DBA2/J and B6AF1 mice were used as donor and recipient, respectively. Heterotopic heart transplantation was carried out according to the procedure of Corry and Russell (Corry et al., Transplant Proc. 5(1):733-5, 1973). […] Secondary heart grafting into the neck was performed using a cuff technique as described previously (Matsuura et al., Transplantation 51(4):896-8, 1991). Briefly, the heart graft was harvested from either DBA2/J (donor strain) or FVB (third-party strain) mice. The right jugular vein and the right common carotid artery of recipient were dissected, and a cuff (polyethylene or polyimide) was connected to these vessels. The graft aorta and pulmonary artery were sleeved over the cuff on the recipient's common carotid artery and the jugular vein, respectively, and fixed with a ligature. After transplantation, beating of the graft was monitored by daily palpation, and scored +1 to +4 according to the strength of graft contractions. Graft rejection was defined as cessation of beating, and was confirmed by direct inspection followed by histological examination.
Donor and recipient mice were treated either with CoPPIX (5 mg/kg/day), ZnPPIX (5 mg/kg/day) or biliverdin (administered once, twice or three times per day at a dose of 50 μmol/kg/dose). All reagents were administered by intraperitoneal (i.p.) injection. Donor animals were treated for 2 days, starting from 2 days before graft harvest (day-2 and day-1). Treatment of recipient mice was initiated one day before transplantation, and continued until 13 days post-transplant (day-1 to day 13). For the experiments using donor splenocyte infusion (DSI) on day-7 (DSI (D-7)), treatments of recipient animals (either with CoPPIX or ZnPPIX) started from day-8 and were terminated on day 6. Recipients received no further treatment. Spleen cells (2×10^7) isolated from DBA/2J mice as described herein were used for DSI treatment. The cells were injected via the penile vein with 200 μl of 0.9% saline solution.
Statistics. Cardiac graft survival was plotted by the Kaplan-Meier method, and a log-rank test was applied to compare statistical significance. Expression levels of HO-1/α-actin protein are expressed as mean±standard deviation. Other data are expressed as mean±standard error of the mean (mean±SEM). Intergroup statistical analysis was performed by one-way ANOVA, and Fisher's PSLD was used for a post-hoc test. A comparison was considered statistically significant when the p-value was <0.05.

For the next experiment, the system named is recipient splenocytes. The experiment in a line: Mixed lymphocyte culture with splenocytes of treated cardiac allograft recipients. The format is in vivo, mice. Particulars: harvested 5 days after cardiac transplantation, 72 hours culture with DBA/2 splenocytes; compared to controls. As for the experimental part: Mixed lymphocyte culture (MLC). Irradiated (25Gy, ^137Cs) DBA/2 splenocytes (5×10^5/well) were co-cultured with responders (5×10^5/well) in a 96 well round bottom plates for 3 days at 37° C., 95% air with 5% CO2. When using cells from cardiac recipients as responders, the co-culture period was 3 days without any further in vitro treatment. ^3H-thymidine (1 μCi/well) was added 16 hours before termination of cell culture, and ^3H-thymidine incorporation was measured.
Induction of HO-1 expression or biliverdin administration suppresses the T cell mediated alloimmune response in vivo. […] Recipient splenocytes harvested 5 days after cardiac transplantation were used as responder cells in an in vitro culture with DBA/2 splenocytes as feeder cells. Proliferation was measured at 72 hours (FIG. 9).

The subject of a further experiment is HO-1. Description: HO activity assay on spleen and heart of treated mice. Type of experiment: in vivo, DBA/2J mice. The settings on record: 5 mg/kg i.p., one day after treatment. As to the method:
HO activity assay. DBA/2J mice were given either no treatment or CoPPIX or ZnPPIX at a dose of 5 mg/kg, i.p. (n=10 per group). One day after the treatment, the animals were sacrificed, the spleen and the heart were excised, and tissue samples were frozen at −80° C. Frozen tissue samples were homogenized in ice-cold sucrose and Tris-HCl buffer. The microsomal pellet was obtained after centrifugation and re-suspended in MgCl2-potassium phosphate buffer. Sample protein was then incubated with the reaction mixture containing rat liver cytosol, hemin, glucose-6-phosphate, glucose-6-phosphate dehydrogenase and NADPH (Sigma-Aldrich Corporation, St. Louis, Mo.) for 60 minutes at 37° C. The generated bilirubin was measured by reacting with diazotized surfanilic acid to yield azobilirubin using spectrophotometer.

With `CC(=O)N(O)CCCCCNC(=O)CCC(=O)N(O)CCCCCNC(=O)CCC(=O)N(O)CCCCCN` [DFO, Desferoxamine], the “protective effect on DSS-colitis” value is “no protective effect was observed” with DSS-colitis (intraperitoneal osmotic pumps, 130 mg/kg/d) and “no protective effect” in the experiment on DSS-colitis (subcutaneous injections of 125 mg/kg twice daily).

In the case of `C=CC1=C(C)/C(=C/c2[nH]c(Cc3[nH]c(/C=C4\NC(=O)C(C)=C4C=C)c(C)c3CCC(=O)O)c(CCC(=O)O)c2C)NC1=O` [bilirubin], the “long-term survival of islets” value in experiment [1] (2 dose per day (every twelve hours)) was 100%; in experiment [1] (single dose per day to donor and recipient) it was 50%.

Turning to `C=CC1=C(C)c2cc3[n-]c(cc4nc(cc5[n-]c(cc1n2)c(C)c5C=C)C(C)=C4CCC(=O)O)c(CCC(=O)O)c3C.[Zn+2]` [ZnPP, zinc protoporphyrin], the graft prolongation effect entry in experiment [2] (ZnPPIX plus DSI (D0), compared to control or DSI (D0) alone) is listed as “no significant graft prolongation effect”. Besides, in experiment [2] (ZnPPIX plus DSI (D-7)), the “allografts with long-term survival” value is on record as 0/9 and the “graft MST” value was 13 days. Also, the “graft median survival time (MST)” value in experiment [2] (one dose per day i.p. (ZnPPIX 5 mg/kg; biliverdin 50 μmol/kg), untreated 11.5 days) is on record as 11 days. In addition, the “proliferation of recipient splenocytes” value with recipient splenocytes was “did not”. In addition, in the experiment on DSS-colitis (ZnPPIX 20 mg/kg i.p. daily, compared to untreated animals), the “effect on natural course of DSS colitis” value is listed as “no significant changes”. The HO-1 enzymatic activity entry in the experiment on HO-1 is reported as “this was not the case”.
